Assay results: patent publication US10633389B2, “CARM1 inhibitors and uses thereof” (Epizyme, Inc., priority 2013, dated 2020)
pIC50: −log10 of the molar value.

The compounds below were run on asymmetric di-methyl PABP1 in RKO cells (assay: RKO methylation assay, In Cell Western (ICW) for asymmetric di-methyl PABP1). Conditions: Homo sapiens, RKO, Cellular potencies, ICW PABP1me2a.
Format: cell-based
Excerpt: RKO adherent cells were purchased from ATCC (American Type Culture Collection), Manassas, Va., USA. DMEM/Glutamax medium, penicillin-streptomycin, heat inactivated fetal bovine serum, 0.05% trypsin and D-PBS were purchased from Life Technologies, Grand Island, N.Y., USA. Odyssey blocking buffer, 800 CW goat anti-rabbit IgG (H+L) antibody, and Licor Odyssey infrared scanner were purchased from Licor Biosciences, Lincoln, Nebr., USA. Asymmetric di-methyl PABP1 antibody was purchased from Cell Signaling Technology, Danvers, Mass., USA. Methanol was purchased from VWR, Franklin, Mass., USA. 10% Tween 20 was purchased from KPL, Inc., Gaithersburg, Md., USA. Paraformaldehyde (PFA) was purchased from EM Sciences. DRAQ5 was purchased from Biostatus Limited, Leicestershire, UK.
RKO adherent cells were maintained in growth medium (DMEM/Glutamax medium supplemented with 10% v/v heat inactivated fetal bovine serum and 100 units/mL penicillin-streptomycin) and cultured at 37° C. under 5% CO2.
Cell treatment, In Cell Western (ICW) for detection of asymmetric di-methyl PABP1 and DNA content: RKO cells were seeded in assay medium at a concentration of 30,000 cells per mL to a poly-D-lysine coated 384 well culture plate (BD Biosciences 356697) with 50 VL per well. Compound (100 nL) from a 96-well source plate was added directly to 384 well cell plate. Plates were incubated at 37° C., 5% CO2 for 48 hours. After two days of incubation, plates were brought to room temperature outside of the incubator for ten minutes and blotted on paper towels to remove cell media. Cells were fixed for 20 minutes at room temperature by adding 50 ul of 8% PFA followed by aspiration of supernatant with the Biotek EL406 plate washer. Cells were then permeabilized by addition of 50 μL of ice cold 100% methanol directly to each well and incubated for 30 min at room temperature. After 30 min, plates were transferred to a Biotek EL406 plate washer and washed 2 times with 100 μL per well of wash buffer (1×PBS). Next 60 μL per well of Odyssey blocking buffer (Odyssey Buffer with 0.1% Tween 20 (v/v)) were added to each plate and incubated 1 hour at room temperature. Blocking buffer was removed and 20 μL per well of primary antibody was added (asymmetric-methyl PABP1) diluted 1:400 in Odyssey buffer with 0.1% Tween 20 (v/v)) and plates were incubated overnight (16 hours) at 4° C. Plates were washed 5 times with 100 μL per well of wash buffer. Next 20 μL per well of secondary antibody was added (1:800 800 CW goat anti-rabbit IgG (H+L) antibody, 1:2000 DRAQ5 in Odyssey buffer with 0.1% Tween 20 (v/v)) and incubated for 1 hour at room temperature. The plates were washed 5 times with 100 μL per well wash buffer then 2 times with 100 μL per well of water. Plates were allowed to dry at room temperature then imaged on the Licor Odyssey machine which measures integrated intensity at 700 nm and 800 nm wavelengths. Both 700 and 800 channels were scanned.
First, the ratio for each well was determined by:
Each plate included fourteen control wells of DMSO only treatment (minimum inhibition) as well as fourteen control wells for maximum inhibition treated with 20 μM of a reference compound. The average of the ratio values for each control type was calculated and used to determine the percent […] for each test well in the plate. Reference compound was serially diluted three-fold in DMSO for a total of nine test concentrations, beginning at 20 μM.
Percent inhibition was determined and IC50 curves were generated using triplicate wells per concentration of compound. […]

pIC50	SMILES
> 5.30	CNC[C@@H](O)COc1ccc(Cl)c(-c2nc(-c3c(C)noc3C)c(Cl)c(N3Cc4nccnc4C3)n2)c1 [Example 225-3]
> 5.30	CNC[C@@H](O)COc1ccc(F)c(-c2nc(-c3c(C)noc3C)c(C)c(N3Cc4cc(F)cnc4C3)n2)c1 [Example 164-3]
5.00 to 5.30	CNCC(O)COc1cccc(-c2nc(N[C@@H]3CCOC3)c(C)c(N3CCC4(CN(CC(F)F)C4)C3)n2)c1 (stereo partly shown) [Example 475-1a]
> 5.30	CCOC(=O)N1CCCC[C@@H]1CNc1nc(-c2cc(OC[C@H](O)CNC)ccc2Cl)nc(-c2c(C)noc2C)c1Cl [Example 153-3]
> 5.30	CCOC(=O)N1CCC(N(C)c2cc(-c3c(C)noc3C)nc(-c3cccc(OCC(O)CNC)c3)n2)CC1 (stereo not shown) [Example 172-1a]
4.70 to 5.00	CNCC(O)COc1cc(Cl)cc(-c2nc(N[C@@H]3CCOC3)cc(-c3c(C)noc3C)n2)c1 (stereo partly shown) [Example 10-1a]
> 5.30	CNC[C@H](O)COc1ccc(Cl)c(-c2nc(-c3c(C)noc3C)c(C)c(N3CCC4(CC3)CN(C(=O)OC)C4)n2)c1 [Example 85-3]
5.00 to 5.30	CNC[C@@H](O)COc1ccc(Cl)c(-c2nc(-c3c(C)noc3C)c(C)c(N3CC(CO)(CO)C3)n2)c1 [Example 163-3]
> 5.30	CNCC(O)COc1cccc(-c2nc(NCC3(N4CC(F)(F)C4)CCOCC3)c(C)c(-c3c(C)noc3C)n2)c1 (stereo not shown) [Example 302-1a]
5.00 to 5.30	CNCC(O)COc1cc(Cl)cc(-c2nc(Nc3cncnc3)cc(-c3c(C)noc3C)n2)c1 (stereo not shown) [Example 9-1a]
> 5.30	CNCC(O)COc1ccc(Cl)c(-c2nc(NC3CC4(CC4)C3)c(C)c(-c3c(C)noc3C)n2)c1 (stereo not shown) [Example 218-3]
> 5.30	CNCC(O)COc1cccc(-c2nc(-c3c(C)noc3C)cc(N3CCN(C4CC4)CC3)n2)c1 (stereo not shown) [Example 30-1a]
> 5.30	CNCC(O)COc1cccc(-c2nc(N[C@H]3C[C@H](C(=O)OC)C3)c(C)c(-c3c(C)noc3C)n2)c1 (stereo partly shown) [Example 221-1a]
> 5.30	CCC(=O)NC1CN(c2nc(-c3cccc(OCC(O)CNC)c3)nc(-c3c(C)noc3C)c2C)C1 (stereo not shown) [Example 14-3]
> 5.30	CNCC(O)COc1cccc(-c2nc(N[C@H]3[C@@H]4CN(C(=O)OC)C[C@@H]43)c(C)c(-c3c(C)noc3C)n2)c1 (stereo partly shown) [Example 282-1a]
4.70 to 5.00	CNCC(O)COc1cccc(-c2nc(N3CCC[C@H](O)C3)cc(N(C)C3CCOCC3)n2)c1 (stereo partly shown) [Example 538-1a]
> 5.30	CNCC(O)COc1cccc(-c2nc(NCC3CCN(CC(F)F)CC3)c(C)c(-c3c(C)noc3C)n2)c1 (stereo not shown) [Example 205-1a]
> 5.30	CNC[C@@H](O)COc1ccc(Cl)c(-c2nc(NC3CC(F)(F)C3)c(C)c(-c3c(C)noc3C)n2)c1 [Example 189-3]
> 5.30	CNC[C@@H](O)COc1ccc(Cl)c(-c2nc(NC[C@H]3COCCN3C(=O)OC(C)C)c(C)c(-c3c(C)noc3C)n2)c1 [Example 134-3]
> 5.30	CNCC(O)COc1cccc(-c2nc(NCC3CCOCC3)c(F)c(-c3c(C)noc3C)n2)c1 (stereo not shown) [Example 143-1a]
> 5.30	CNC[C@@H](O)COc1ccc(Cl)c(-c2nc(-c3c(C)noc3C)c(C)c(N3Cc4nc(C)sc4C3)n2)c1 [Example 192-3]
> 5.30	CNCC(O)COc1ccc(Cl)c(-c2nc(NC3CC4(CCN(C(=O)OC)CC4)C3)c(C)c(-c3c(C)noc3C)n2)c1 (stereo not shown) [Example 37-3]
> 5.30	CNC[C@@H](O)COc1ccc(F)c(-c2nc(-c3c(C)noc3C)c(C)c(N3Cc4cc(Cl)cnc4C3)n2)c1 [Example 185-3]
> 5.30	CNCC(O)COc1cccc(-c2nc(-c3ccnc(C#N)c3)cc(N(C)C3CCOCC3)n2)c1 (stereo not shown) [Example 498-1a]
4.70 to 5.00	CNCC(O)COc1cccc(-c2nc(N3CCNC(=O)C3)cc(N(C)C3CCOCC3)n2)c1 (stereo not shown) [Example 575-1a]
4.70 to 5.00	CNCC(O)COc1cccc(-c2nc(-c3c(C)noc3C)c(C)c(N3CCS(=O)(=O)CC3)n2)c1 (stereo not shown) [Example 57-1a]

pIC50	SMILES
5.00 to 5.30	CCNC(=O)N1CCN(c2nc(-c3cccc(OCC(O)CNC)c3)nc(-c3c(C)noc3C)c2C)CC1 (stereo not shown) [Example 106-1a]
> 5.30	CCOC(=O)N1CCOC[C@@H]1CNc1nc(-c2cc(OCC(O)CNC)ccc2Cl)nc(-c2c(C)nsc2C)c1C (stereo partly shown) [Example 93-3]
> 5.30	CNC[C@@H](O)COc1ccc(Cl)c(-c2nc(-c3c(C)noc3C)c(C)c(N3CC4(CCC4)C3)n2)c1 [Example 246-3]
4.70 to 5.00	CNCC(O)COc1cccc(-c2nc(-c3c(C)noc3C)cc(N3C[C@@H]4C[C@H]3CN4S(C)(=O)=O)n2)c1 (stereo partly shown) [Example 80-1a]
> 5.30	CNC[C@@H](O)COc1ccc(Cl)c(-c2nc(-c3c(C)noc3C)c(C)c(N3CC4(CCOC4)C3)n2)c1 [Example 120-3]
> 5.30	CNC[C@@H](O)COc1ccc(F)c(-c2nc(-c3c(C)noc3C)c(Cl)c(N3Cc4nccnc4C3)n2)c1 [Example 295-3]
> 5.30	CNCC(O)COc1cccc(-c2nc(NC3CCN(C(=O)OC)C3)c(C)c(-c3c(C)noc3C)n2)c1 (stereo not shown) [Example 186-1a]
> 5.30	CNCC(O)COc1cccc(-c2nc(NC3CCCN(S(C)(=O)=O)C3)c(C)c(-c3c(C)noc3C)n2)c1 (stereo not shown) [Example 198-1a]
4.70 to 5.00	CNCC(O)COc1cccc(-c2nc(NC3CCOC3)c(C)c(N3CC4(CCNCC4)c4ccccc43)n2)c1 (stereo not shown) [Example 398-1a]
> 5.30	CNCC(O)COc1cccc(-c2nc(N[C@H]3C[C@H](O)C3)c(C)c(-c3c(C)noc3C)n2)c1 (stereo partly shown) [Example 254-1a]
> 5.30	CNC[C@@H](O)COc1ccc(Cl)c(-c2nc(N[C@@H]3C[C@@H](C)O[C@@H](C)C3)c(C)c(-c3c(C)noc3C)n2)c1 [Example 182-3]
> 5.30	CNCC(O)COc1cccc(-c2nc(OCC3CCN(C(=O)N(C)C)CC3)c(C)c(-c3c(C)noc3C)n2)c1 (stereo not shown) [Example 285-1a]
5.00 to 5.30	Cc1noc(C)c1-c1cc(NC2CCOCC2)nc(-c2cccc(OC[C@H](O)CN)c2)n1 [Example 16-1a]
> 5.30	CNCC(O)COc1cccc(-c2nc(OCC3CCN(C4CC4)CC3)c(C)c(-c3c(C)noc3C)n2)c1 (stereo not shown) [Example 303-1a]
> 5.30	CNC[C@@H](O)COc1ccc(Cl)c(-c2nc(-c3c(C)noc3C)c(C)c(N3CCC4(CC3)CN(C(=O)OC)C4)n2)c1 [Example 115-3]
> 5.30	CCOC(=O)N1CCOC[C@@H]1CNc1nc(-c2cc(OC[C@@H](O)CNC)ccc2Cl)nc(-c2c(C)noc2C)c1C [Example 42-3]
4.70 to 5.00	CNCC(O)COc1cccc(-c2nc(N[C@@H]3CCOC3)c(C)c(N3CCC4(CC3)CNC(=O)C4)n2)c1 (stereo partly shown) [Example 424-1a]
> 5.30	CNC[C@@H](O)COc1ccc(Cl)c(-c2nc(-c3c(C)noc3C)c(C)c(N3CCc4nc(C)sc4C3)n2)c1 [Example 141-3]
5.00 to 5.30	CNCC(O)COc1cccc(-c2nc(-c3cnc4c(C(=O)N(C)C)cnn4c3)cc(N(C)C3CCOCC3)n2)c1 (stereo not shown) [Example 514-1a]
> 5.30	CNC[C@@H](O)COc1ccc(Cl)c(-c2nc(-c3c(C)noc3C)c(C)c(N(C)C3CC(COC)C3)n2)c1 (stereo partly shown) [Example 220-3]
4.70 to 5.00	CNC[C@@H](O)COc1ccc(Cl)c(-c2nc(-c3c(C)noc3C)c(C)c(N3Cc4[nH]c(=O)[nH]c(=O)c4C3)n2)c1 [Example 279-3]
> 5.30	CNCC(O)COc1cc(NC)cc(-c2nc(NC3CCOCC3)c(C)c(-c3c(C)noc3C)n2)c1 (stereo not shown) [Example 136-1a]
4.70 to 5.00	CNCC(O)COc1cccc(-c2nc(-c3c(C)noc3C)cc(N3C[C@@H]4C[C@H]3CN4C(C)=O)n2)c1 (stereo partly shown) [Example 95-1a]
> 5.30	CNC[C@@H](O)COc1ccc(Cl)c(-c2nc(-c3c(C)noc3C)c(C)c(N3CCC4(C3)CN(C3CC3)C4)n2)c1 [Example 178-3]
> 5.30	CNCC(O)COc1cccc(-c2nc(-c3c(C)noc3C)c(C)c(N3CCOC(C)(C)C3)n2)c1 (stereo not shown) [Example 200-1a]
5.00 to 5.30	CNCC(O)COc1cccc(-c2nc(N[C@@H]3CCOC3)c(C)c(N3CC4CN(S(C)(=O)=O)CC4C3)n2)c1 (stereo partly shown) [Example 11-3]
